Data: patent US20110015208A1, “PHARMACEUTICAL COMPOSITIONS CONTAINING DOPAMINE RECEPTOR LIGANDS AND METHODS OF TREATMENT USING DOPAMINE RECEPTOR LIGANDS” (priority 2007, published 2011)

Key:
[1] = system: d-amphetamine/chlordiazepoxide mixture (AMPH/CDP)-induced hyperactivity in mice; assay: d-Amphetamine/chlordiazepoxide (AMPH/CDP) hyperactivity test (Example 4B); assay type: in vivo, mouse; conditions: test condition AMPH/CDP; 400 mg/kg IP
Experimental: (§1) Cariprazine hydrochloride and escitalopram oxalate were evaluated for anti-manic effects using the amphetamine/chlordiazepoxide (AMPH/CDP) hyperactivity test.
(§2) Male C57B1/6J mice (8 weeks old) from Jackson Laboratories (Bar Harbor, Me.) were used in this study. Upon receipt, mice were assigned unique identification numbers (tail marked) and were group housed (4 mice/cage) in OPTI mouse ventilated cages. All animals remained housed in groups of four during the remainder of the study. During the period of acclimation, mice were examined on a regular basis, handled, and weighed to assure adequate health and suitability. Mice were maintained on a 12/12 light/dark cycle. The room temperature was maintained between 20 and 23° C. with a relative humidity maintained between 30% and 70%. Chow and water were provided ad libitum for the duration of the study. In each test, animals were randomly assigned across treatment groups.
(§3) d-Amphetamine sulfate (Sigma, 4.0 mg/kg) and chlordiazepoxide (CDP; Sigma, 2.5 mg/kg) were dissolved in sterile water and were administered intraperitoneally at a dose volume of 10 ml/kg.
(§4) Distance traveled is measured by consecutive beam breaks.
(§5) Data was analyzed by analysis of variance (ANOVA) followed by Fisher PLSD post-hoc analysis when appropriate. An effect was considered significant if p<0.05. Outliers that fell above and below two standard deviations from the mean were removed from the final analysis.

[2] = system: basal locomotor activity of mice; assay: Open field, basal locomotor activity of mice (Example 4A); assay type: in vivo, mouse; conditions: test condition water; 400 mg/kg IP, 30 min pretreatment
Experimental: as §1
as §2, with “C57B1/6J mice from Jackson” for “C57B1/6J mice (8 weeks old) from Jackson”, “this study. Mice were received at 6-weeks of age. Upon receipt,” for “this study. Upon receipt,”, “group housed with 4 mice/cage. All animals” for “group housed (4 mice/cage) in OPTI mouse ventilated cages. All animals”, “the study. All mice were acclimated to the colony room for at least two weeks prior to testing and were subsequently tested at an average age of 8 weeks of age. During the” for “the study. During the”
as §4, §5

[3] = system: basal locomotor activity of mice; assay: Open field, basal locomotor activity of mice (Example 4B); assay type: in vivo, mouse; conditions: test condition water; 400 mg/kg IP
Experimental: as §1, §2, §4, §5

[4] = system: d-amphetamine/chlordiazepoxide mixture (AMPH/CDP)-induced hyperactivity in mice; assay: d-Amphetamine/chlordiazepoxide (AMPH/CDP) hyperactivity test (Example 4A); assay type: in vivo, mouse; conditions: test condition AMPH/CDP; 400 mg/kg IP, 30 min pretreatment
Experimental: as §1
as §2, with “C57B1/6J mice from Jackson” for “C57B1/6J mice (8 weeks old) from Jackson”, “this study. Mice were received at 6-weeks of age. Upon receipt,” for “this study. Upon receipt,”, “group housed with 4 mice/cage. All animals” for “group housed (4 mice/cage) in OPTI mouse ventilated cages. All animals”, “the study. All mice were acclimated to the colony room for at least two weeks prior to testing and were subsequently tested at an average age of 8 weeks of age. During the” for “the study. During the”
as §3, §4, §5

[5] = system: chronic mild stress (CMS) model of depression; assay: Chronic mild stress (CMS) model of depression, sucrose consumption (Example 2); assay type: in vivo, rat; conditions: imipramine 10 mg/kg IP once daily, stressed animals
Description: This study evaluated the antidepressant effect of cariprazine hydrochloride in the chronic mild stress (CMS) model of depression. A comparison to the efficacy of the tricyciclic antidepressant compound imipramine was also made.
Male Wistar rats were adapted to laboratory and housing conditions for 3 weeks, followed by adoption to consumption of 1% sucrose solution for an additional 5 weeks before being separated into control and to-be-stressed groups.
Chronic stress was applied to the allocated group for seven weeks. The following stressors were used: food and/or water deprivation, cage tilting (45 degrees backwards), intermittent illumination, paired housing, soiled cage (250 mL of tap water in sawdust bedding), stroboscopic illumination (150 flashed per minute), no stress. All stressors were 10-14 hours in duration and were applied individually and continuously, once or twice weekly, during the day and at night.
Consumption of sucrose solution was measured in 1-hour tests conducted on all animals (i.e., controls and stressed) once weekly throughout the entire experiment. The tests were preceded by 14 hours of food and water deprivation. On the basis of their sucrose intakes following the initial 2 weeks of stress, both stressed and control animals received once-daily chronic (5 weeks) IP injections of vehicle (1% methyl cellulose, 1 mL/kg), cariprazine hydrochloride (0.0625, 0.25 or 1.0 mg/kg), or imipramine (10 mg/kg) as reference treatment. […] These animals were considered weak responders/non-responders and were eliminated from the analysis.

[6] = system: chronic mild stress (CMS) model of depression; assay: Chronic mild stress (CMS) model of depression, sucrose consumption (Example 3); assay type: in vivo, rat; conditions: imipramine, reference treatment in parallel studies
Description: Similar to the study described in Example 2, additional studies were undertaken to further evaluate the antidepressant effect of cariprazine hydrochloride, administered alone, or in combination with escitalopram oxalate, in a chronic mild stress model of depression
In the chronic mild stress (CMS) model, rats subjected to a variety of mild stressors for a prolonged period of time show a substantial decrease in their responsiveness to rewarding stimuli. This deficit is usually monitored by a decrease in the consumption of a 1% sucrose solution, but can also be seen in other tests, such as place preference conditioning or intracranial self-stimulation. The subsensitivity to reward appears to reflect anhedonia (inability to experience pleasure), which is a core symptom of major depressive disorders. Clinically approved antidepressants have shown activity in this animal model by reversing the effects of CMS on sucrose consumption. See, e.g., Sanchez C, Gruca P, Papp M, Behavioural Pharmacology 14, 465-470, 2003.
Male Wistar rats (Charles River, Germany) were brought into the laboratory two months before the start of the experiment. Except as described below, the animals were singly housed with food and water freely available, and were maintained on a 12-h light/dark and in a constant temperature (22±2° C.) and humidity (50±5%) conditions.
The animals were first trained to consume a 1% sucrose solution; training consisted of nine 1 h baseline tests in which sucrose was presented, in the home cage, following 14 h food and water deprivation. The sucrose intake was measured by weighing pre-weighed bottles containing the sucrose solution, at the end of the test. Subsequently, sucrose consumption was monitored, under similar conditions, at weekly intervals throughout the whole experiment.
On the basis of their sucrose intakes in the final baseline test, the animals were divided into two matched groups. One group of animals was subjected to the chronic mild stress procedure for a period of 7 consecutive weeks. Each week of stress regime consisted of: two periods of food or water deprivation, two periods of 45 degree cage tilt, two periods of intermittent illumination (lights on and off every 2 h), two periods of soiled cage (250 ml water in sawdust bedding), one period of paired housing, two periods of low intensity stroboscopic illumination (150 flashes/min), and three periods of no stress. All stressors were 10-14 h of duration and were applied individually and continuously, day and night. Control animals were housed in separate rooms and had no contact with the stressed animals. They were deprived of food and water for 14 h preceding each sucrose test, but otherwise food and water were freely available in the home cage.

Row | Structure (SMILES) | Total Distance Traveled [mean ± SEM] [1] [cm/60 min] | Total Distance Traveled [mean ± SEM] [2] [cm/60 min] | Total Distance Traveled [mean ± SEM] [3] [cm/60 min] | Total Distance Traveled [mean ± SEM] [4] [cm/60 min] | CMS-induced decrease in consumption of 1% sucrose solution ([5]; 5 weeks) | onset of action: effect on sucrose drinking evident at [5] [Week] | time until effect on sucrose consumption reached significance [6]
1 | CCCC(CCC)C(=O)O [Valproate] | 18478 ± 2961 | 4471 ± 298 | 3365 ± 612 | 17496 ± 1788 | – | – | –
2 | CN(C)CCCN1c2ccccc2CCc2ccccc21 [imipramine, reference compound] | – | – | – | – | fully reversed | 3 | after three weeks of administration
